Data as given in BindingDB's records for doi:10.1002/cbic.201200206 (Frederick National Laboratory For Cancer Research, 2012).

Target: Serine/threonine-protein kinase PLK1 (Homo sapiens, UniProt P53350)
Assay: Binding Assay
Source text: […] PDB fluorescence polarization competition binding assay using Plk.

Chain of Serine/threonine-protein kinase PLK1 (P53350 whole entry): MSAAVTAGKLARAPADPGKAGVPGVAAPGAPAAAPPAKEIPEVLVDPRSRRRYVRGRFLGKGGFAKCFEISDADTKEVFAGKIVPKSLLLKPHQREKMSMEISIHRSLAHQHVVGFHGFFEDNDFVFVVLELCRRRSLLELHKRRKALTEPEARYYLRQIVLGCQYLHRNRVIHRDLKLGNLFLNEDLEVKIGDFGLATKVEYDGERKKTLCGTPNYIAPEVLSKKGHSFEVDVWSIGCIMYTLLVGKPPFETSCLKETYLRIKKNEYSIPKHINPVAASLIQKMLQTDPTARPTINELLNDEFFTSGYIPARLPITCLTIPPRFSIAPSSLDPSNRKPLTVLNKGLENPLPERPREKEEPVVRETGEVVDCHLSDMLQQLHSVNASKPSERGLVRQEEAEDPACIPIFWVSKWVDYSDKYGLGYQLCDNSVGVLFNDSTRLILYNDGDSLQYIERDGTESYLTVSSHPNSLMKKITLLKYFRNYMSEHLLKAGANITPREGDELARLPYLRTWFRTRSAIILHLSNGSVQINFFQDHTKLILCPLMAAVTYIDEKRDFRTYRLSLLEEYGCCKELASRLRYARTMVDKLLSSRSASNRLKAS

**Q.** Which IC50 does the source give for `CC(=O)N(CCCCc1ccccc1)CC(=O)N[C@H](CC(C)C)C(=O)N[C@H](Cc1cnc[nH]1)C(=O)N[C@H](CO)C(=O)N[C@@H](C(N)=O)[C@@H](C)CP(=O)(O)O` [Peptide-peptoid hybrid, 13] here?
**A.** 71 nM
